Assay results as given in patent US12703698B2, “Inhibitors of interleukin-1 receptor-associated kinases 1 and 4” (The University of Rochester, priority 2020, dated 2026).

Tests used:
THP-1 cells = assay: Colony formation of THP-1 cells in vitro; assay type: cell-based, human; conditions: FIGS. 4A-4C
Text: FIGS. 4A, 4B and 4C show the effect of MCC950 (reference), UR241-1, and UR241-2 on the colony formation potential of THP-1 cells in vitro.

MDS-L cells = assay: Colony formation of MDS-L cells in vitro; assay type: cell-based; conditions: for colony formation of MDS-L cells: FIGS. 7A-7C; for colony formation potential of MDS-L cells: FIGS. 6A-6B
Text: FIGS. 6A and 6B show the effect of UR241-1 and UR241-2 on the colony formation potential of MDS-L cells in vitro.

murine MLL-AF9 leukemia = assay: Colony forming activity in methylcellulose culture, MLL-AF9 leukemia; assay type: cell-based
[1] = system: IL1b signaling events in THP-1 cells; assay: Western blot of IL1b signaling events in THP-1 cells; assay type: cell-based, human; conditions: THP-1 cells at 10 and 30 minutes; hIL-1β 10 ng/mL, UR241-2 4 μM, WB 30 μg/lane; FIG. 1E
Protocol: Whole cell lysates of THP1 treated with vehicle, hIL-1B (10 ng/mL), UR241-1 (10 μM) and UR241-2 (4 μM) for 10 minutes and 30 minutes. 30 μg proteins were electrophoresed and probed with phospho-/native p65, phospho-p38, pAKT, and GAPDH.

SMILES	colony formation potential of THP-1 cells (THP-1 cells)	colony formation of MDS-L cells (MDS-L cells)	colony formation potential of MDS-L cells (MDS-L cells)	inhibition of colony forming activity (murine MLL-AF9 leukemia; UR241-2 4 uM with MCC950 100 nM, FIG. 1F)	inhibition of colony forming activity (murine MLL-AF9 leukemia; UR241-2 4 uM without MCC950, FIG. 1F)	inhibition of IL1b signaling events [1]
CC(C)(O)c1coc(S(=O)(=O)NC(=O)Nc2c3c(cc4c2CCC4)CCC3)c1 [MCC950, reference compound]	suppressed the colonies formed by THP-1 cells dose-dependently	inhibited colony formation of MDS-L cells in vitro, dose-dependently	–	–	–	–
CC[C@@H]1[C@H](F)C(=O)N[C@@H]1COc1nccc2cc(C(N)=O)c(OC)cc12 [PF06650833, reference compound]	–	inhibited colony formation of MDS-L cells in vitro, dose-dependently	–	–	–	–
COc1cc(N2CCS(=O)(=O)CC2)ccc1NC(=O)c1cccc(-c2cc[nH]n2)c1 [UR241-1]	suppressed the colonies formed by THP-1 cells dose-dependently	–	suppressed the colonies formed by MDS-L cells dose dependently	–	–	–
COc1cc(N2CCS(=O)(=O)CC2)ccc1NC(=O)c1cccc(-c2cc[nH]n2)n1 [UR241-2]	suppressed the colonies formed by THP-1 cells dose-dependently	inhibited colony formation of MDS-L cells in vitro, dose-dependently	suppressed the colonies formed by MDS-L cells dose dependently	inhibition of colony forming activity	inhibition of colony forming activity	inhibition
